Key:
[1] = Stability of labelled substrate in CE assay without enzyme; type: physicochemical; details: absence of enzyme, CE assay conditions
Description: 6S-N-acetyl-D-glucosamine was labelled at its reducing end with BODIPY which has a maximal emission absorbance of ∼503 nm, which can be detected by the EZ Reader II platform via LED-induced fluorescence. Non-radioactive microfluidic mobility shift carbohydrate sulfation assays were optimised in solution with a 12-sipper chip coated with CR8 reagent and performed using a PerkinElmer EZ Reader II system employing EDTA-based separation buffer and real-time kinetic evaluation of substrate desulfation. Pressure and voltage settings were adjusted manually (1.8 psi, upstream voltage: 2250 V, downstream voltage: 500 V) to afford optimal separation in the reaction mixture of the sulfated substrate and unsulfated glycan product, with a sample (sip) time of 0.2 s, and total assay times appropriate for the experiment. Individual de-sulfation assays were carried out at 28°C and were pre-assembled in a 384-well plate in a volume of 80 μl in the presence of substrate concentrations between 0.5 and 20 μM with 100 mM Bis-Tris-Propane (BTP) or Tris, dependent on the pH required, and 150 mM NaCl, 0.02% (v/v) Brij-35 and 5 mM CaCl2. The amount of de-sulfation was directly calculated in real-time using EZ Reader II software by measuring the sulfated carbohydrate : unsulfated carbohydrate ratio at each time point during the assay. […]

[2] = parameters: method as in PMID 36876452; details: pH range; cited from earlier work

Row | SMILES | amount of unsulfated substrate over the course of the reaction (stability) [1] | stability over a variety of pH values [2]
1 | CC(=O)N[C@@H]1[C@@H](O)[C@H](O)[C@@H](COS(=O)(=O)O)O[C@H]1NNC(=O)CCC1=[N+]2C(=Cc3c(C)cc(C)n3[B-]2(F)F)C=C1 [6S-GlcNAc-BODIPY] | remained constant | 
2 | Cc1cc(C)n2c1C=C1C=CC(CCC(=O)NN)=[N+]1[B-]2(F)F [BODIPY-FL hydrazide, 4,4-difluoro-5,7-dimethyl-4-bora-3a,4a-diaza-s-indacene-3-propionic acid, hydrazide] |  | 3–12
